Active and inactive are the calls of the source.
How the values were obtained:
[1] = target: Large T antigen (Simian virus 40, UniProt P03070); format: functional, Betapolyomavirus macacae;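 further: Confirmatory-stage PubChem screen for compounds that inhibit SV40 T antigen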
[2] = target: T1, Ubiquitin-conjugating enzyme E2 N (Homo sapiens, UniProt P61088); format: functional;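 further: Dose-response confirmation in a TR-FRET assay detecting UBC13-driven polyubiquitin chain formation, inhibition measured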
T1 sequence (P61088 whole entry): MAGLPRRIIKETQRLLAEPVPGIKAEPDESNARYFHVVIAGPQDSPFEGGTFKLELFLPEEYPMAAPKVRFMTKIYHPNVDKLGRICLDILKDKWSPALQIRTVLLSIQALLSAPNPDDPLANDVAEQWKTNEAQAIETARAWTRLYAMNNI

[3] = target: T2, Protein skinhead-1 (Caenorhabditis elegans, UniProt P34707); format: functional
T2 sequence (P34707 whole entry): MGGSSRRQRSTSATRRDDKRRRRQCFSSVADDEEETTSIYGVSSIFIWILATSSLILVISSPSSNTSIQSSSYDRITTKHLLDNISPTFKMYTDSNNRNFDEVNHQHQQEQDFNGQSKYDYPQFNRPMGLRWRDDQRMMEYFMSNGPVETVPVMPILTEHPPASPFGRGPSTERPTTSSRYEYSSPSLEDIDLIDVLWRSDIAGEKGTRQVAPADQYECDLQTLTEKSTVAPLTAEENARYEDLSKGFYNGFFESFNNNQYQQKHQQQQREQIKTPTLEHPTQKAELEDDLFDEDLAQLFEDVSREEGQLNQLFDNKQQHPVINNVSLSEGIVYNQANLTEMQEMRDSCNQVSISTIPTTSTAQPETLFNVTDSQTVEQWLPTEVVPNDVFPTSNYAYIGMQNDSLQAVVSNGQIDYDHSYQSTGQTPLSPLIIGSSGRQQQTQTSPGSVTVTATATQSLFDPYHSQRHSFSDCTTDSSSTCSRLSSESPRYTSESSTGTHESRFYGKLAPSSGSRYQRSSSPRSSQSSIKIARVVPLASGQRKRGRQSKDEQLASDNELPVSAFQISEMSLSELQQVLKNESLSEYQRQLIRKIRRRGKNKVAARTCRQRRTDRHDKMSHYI

[4] = system: H4; experiment: Luminescence Cell-Based Dose Response HTS to Identify Activators of 5'UTR Stem-Loop Driven Prion Protein mRNA Translation in H4 Neuroglioblastoma Cells. [Related pubchem assays: 1829 (Project Summary), 1814 (Primary HTS)]; format: functional; conditions: Homo sapiens
[5] = Luminescence Cell-Based Dose Confirmation HTS to Identify Activators of 5'UTR Stem-Loop Driven Alpha-Synuclein mRNA Translation in H4 Neuroglioblastoma Cells. [Related pubchem assays: 1829 (Project Summary), 1814 (Primary HTS)]; format: functional
[6] = Luminescence Cell-Based Dose Response HTS to Identify Activators of Luciferase Translation or Activity in H4 […] Cells. [Related pubchem assays: 1829 (Project Summary), 1814 (Primary HTS)]; format: functional
[7] = microbe, parasite or virus in culture; format: functional; conditions: Mycobacterium tuberculosis
[8] = target: T3, Carboxy-terminal domain RNA polymerase II polypeptide A small phosphatase 1 (Homo sapiens, UniProt Q9GZU7); experiment: inhibitors of CTDSP1, concentration-response testing, biochemical assay, absorbance-based, actives from ultra-high-throughput screening (AID 540297); format: functional
T3 sequence (Q9GZU7 whole entry): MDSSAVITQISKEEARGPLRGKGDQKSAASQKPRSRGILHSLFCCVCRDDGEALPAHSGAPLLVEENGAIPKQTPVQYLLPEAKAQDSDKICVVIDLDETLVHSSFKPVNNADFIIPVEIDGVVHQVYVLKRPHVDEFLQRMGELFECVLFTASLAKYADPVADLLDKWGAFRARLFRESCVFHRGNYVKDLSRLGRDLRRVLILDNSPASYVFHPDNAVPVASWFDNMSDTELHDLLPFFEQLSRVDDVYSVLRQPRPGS

[9] = Shn3 3'UTR reporter inhibitors, dose response, cell-based, Clone20 osteoblasts, firefly luciferase, cherry-picked (AID 624132); format: functional;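 further: firefly luciferase luminescence from reporter carrying the Shn3 3'UTR in osteoblasts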
[10] = target: T4, Cytochrome P450 1A2 (Homo sapiens, UniProt P05177);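 further: PubChem cytochrome P450 panel assay, CYP1A2 panel member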
T4 sequence (P05177 whole entry): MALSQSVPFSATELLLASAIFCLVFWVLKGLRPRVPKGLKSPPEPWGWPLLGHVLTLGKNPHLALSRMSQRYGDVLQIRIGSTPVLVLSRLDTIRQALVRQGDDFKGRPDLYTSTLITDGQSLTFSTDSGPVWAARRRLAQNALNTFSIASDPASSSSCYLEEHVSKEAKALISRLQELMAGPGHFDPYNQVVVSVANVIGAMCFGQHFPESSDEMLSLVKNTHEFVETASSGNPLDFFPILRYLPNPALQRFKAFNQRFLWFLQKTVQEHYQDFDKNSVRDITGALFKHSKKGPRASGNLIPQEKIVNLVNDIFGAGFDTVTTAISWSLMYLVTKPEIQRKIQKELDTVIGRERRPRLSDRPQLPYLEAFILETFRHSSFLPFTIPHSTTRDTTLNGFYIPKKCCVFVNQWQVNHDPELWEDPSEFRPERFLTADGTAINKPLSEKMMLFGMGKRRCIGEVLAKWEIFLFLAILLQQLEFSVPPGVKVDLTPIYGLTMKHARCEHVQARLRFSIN

[11] = target: FAD-linked sulfhydryl oxidase ALR (Homo sapiens, UniProt P55789); experiment: inhibitors of human ALR sulfhydryl oxidase, dose response, biochemical, H2O2 detection, luminescence, cherry-pick (AID 493248)
FAD-linked sulfhydryl oxidase ALR, sequence (P55789 whole entry): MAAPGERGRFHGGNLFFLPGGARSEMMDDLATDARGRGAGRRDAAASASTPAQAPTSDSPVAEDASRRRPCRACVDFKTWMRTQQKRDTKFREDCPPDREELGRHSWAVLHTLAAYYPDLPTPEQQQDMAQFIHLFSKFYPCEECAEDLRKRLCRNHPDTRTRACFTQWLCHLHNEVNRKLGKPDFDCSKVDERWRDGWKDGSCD

[12] = cells; format: functional
[13] = inhibitors of intracellular T. cruzi replication, confirmation, NIH3T3 host cells, beta-gal luminescence (AID 2044); format: functional, cell-based;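 further: intracellular parasites grown in NIH/3T3 mouse fibroblasts as host cells; luminescent beta-galactosidase reporter signal from transgenic T. cruzi replicating inside host cells; inhibitors lower the luminescence signal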
[14] = cytotoxicity toward NIH3T3 fibroblasts, dose response, counter-screen, cell-based, ATP luminescence, mouse fibroblasts (AID 2010); format: functional;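 further: cells exposed to compound for about 90 hours before reading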
[15] = growth suppression of beta-catenin-knockout colon cells, dose response, cell-based, HCT116, human colon tumor (AID 1045); format: functional;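 further: HCT116 colon tumor cells with beta catenin knocked out; cells exposed to compound for 60 hours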
[16] = growth suppression of PTEN-null colon cells, dose response, cell-based, HCT116 PTEN knockout (AID 1047); format: functional;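 further: HCT116 colon tumor cells with PTEN knocked out; cells exposed to compound for 60 hours before readout; potency for loss of cell viability measured by luminescence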
[17] = target: T5, Rac GTPase-activating protein 1 (Homo sapiens, UniProt Q9H0H5); experiment: MgcRacGAP GTPase-activating activity inhibitors, confirmation, biochemical, ADP Hunter fluorescence, primary and confirmatory (AID 624330); format: functional
T5 sequence (Q9H0H5 whole entry): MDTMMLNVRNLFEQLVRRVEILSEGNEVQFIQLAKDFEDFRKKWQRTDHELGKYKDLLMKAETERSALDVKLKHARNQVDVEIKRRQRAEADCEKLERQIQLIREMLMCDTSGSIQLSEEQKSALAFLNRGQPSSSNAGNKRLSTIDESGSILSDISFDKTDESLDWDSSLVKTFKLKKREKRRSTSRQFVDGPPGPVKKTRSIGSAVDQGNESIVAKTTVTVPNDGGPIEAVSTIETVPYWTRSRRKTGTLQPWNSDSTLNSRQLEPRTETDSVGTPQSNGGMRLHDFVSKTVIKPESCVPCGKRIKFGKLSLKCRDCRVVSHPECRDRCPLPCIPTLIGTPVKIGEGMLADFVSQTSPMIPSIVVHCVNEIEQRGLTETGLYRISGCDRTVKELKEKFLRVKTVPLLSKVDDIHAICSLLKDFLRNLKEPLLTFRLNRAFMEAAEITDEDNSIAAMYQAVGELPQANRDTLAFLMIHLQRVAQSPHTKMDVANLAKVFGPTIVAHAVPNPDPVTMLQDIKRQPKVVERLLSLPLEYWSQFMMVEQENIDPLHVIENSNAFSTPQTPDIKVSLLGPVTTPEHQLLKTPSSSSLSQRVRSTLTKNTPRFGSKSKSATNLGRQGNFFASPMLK

Large T antigen, sequence (P03070 whole entry): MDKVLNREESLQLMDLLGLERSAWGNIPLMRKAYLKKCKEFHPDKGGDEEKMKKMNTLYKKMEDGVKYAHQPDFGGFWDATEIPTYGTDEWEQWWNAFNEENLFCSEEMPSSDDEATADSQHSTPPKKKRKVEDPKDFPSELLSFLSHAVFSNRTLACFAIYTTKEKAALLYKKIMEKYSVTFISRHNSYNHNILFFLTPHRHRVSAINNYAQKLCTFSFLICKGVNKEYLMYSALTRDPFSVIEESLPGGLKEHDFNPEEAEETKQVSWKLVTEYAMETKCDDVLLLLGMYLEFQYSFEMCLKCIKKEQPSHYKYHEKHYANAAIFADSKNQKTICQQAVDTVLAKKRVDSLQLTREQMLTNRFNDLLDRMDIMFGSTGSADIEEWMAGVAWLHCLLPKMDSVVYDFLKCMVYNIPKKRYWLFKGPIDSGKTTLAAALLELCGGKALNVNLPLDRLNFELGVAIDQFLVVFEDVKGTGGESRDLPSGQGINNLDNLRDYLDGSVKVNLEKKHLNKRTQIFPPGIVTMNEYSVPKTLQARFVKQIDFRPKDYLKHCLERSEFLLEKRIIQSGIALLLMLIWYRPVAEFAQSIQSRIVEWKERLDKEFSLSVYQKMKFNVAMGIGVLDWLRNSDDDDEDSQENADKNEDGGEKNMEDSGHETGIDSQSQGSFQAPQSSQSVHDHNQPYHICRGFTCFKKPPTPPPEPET

COc1ccccc1NC(=O)Oc1ccc(NC(=O)c2ccco2)cc1
IC50 [1]: 22.9 µM (active)

C=CCn1c(SCC(=O)N(CC)C2CCS(=O)(=O)C2)nnc1-c1ccccc1 (stereo not given)
IC50 [2]: > 20 µM (inactive)

Cc1ccc(N2C(=O)NC(=O)/C(=C/Nc3ccc(S(=O)(=O)N(C)C)cc3)C2=O)cc1
IC50 [3]: > 100 µM (inactive)

COc1ccc(-c2nc3c(n2O)CCc2c-3no[n+]2[O-])cc1
EC50 [4]: 15 µM (active)
EC50 [5]: > 120 µM (not active)
EC50 [6]: 22.2 µM (active)

CC1(C)c2[nH]c3ccccc3c2C[C@@H]2C(=O)N(Cc3ccccc3F)C(=O)N21
CC50 [7]: > 40 µM (active)

O=C(CCCCCN1C(=O)c2cccc3cccc(c23)C1=O)NCc1ccco1
IC50 [2]: > 20 µM (inactive)

Cc1ccc(C(=O)Nc2nc(-c3ccc(F)cc3)cs2)o1
IC50 [3]: > 100 µM (inactive)

COc1ccccc1C(=O)Nc1c2c(nn1-c1cccc(C)c1C)CS(=O)(=O)C2
IC50 [2]: > 20 µM (inactive)
IC50 [8]: 10.1 µM (active)

COC(=O)c1ccccc1N=C(S)N(Cc1ccc2c(c1)OCO2)Cc1cc2cc(OC)ccc2nc1O
AC50 [9]: 10.4 µM (active)

N#CC1=C2SCN(c3ccccc3)CN2C(=O)CC1c1ccccc1Cl (stereo not given)
IC50 [1]: 36.3 µM (active)

O=C(NNc1nc2ccccc2s1)c1ccccc1F
AC50 [10]: 14.1 µM (inconclusive)
CC50 [7]: > 40 µM (active)
AC50 [11]: 14.2 µM (active)

Cc1cc(OCc2cccc(Cl)c2)c(C)cc1CN1CCOCC1
IC50 [3]: 6.33 µM (active)

CCOCC(=O)Nc1ccc(C)c(Cl)c1
IC50 [12]: 37.1 µM (active)
IC50 [3]: > 100 µM (inactive)

Cc1ccc(NC(=O)c2cnn(-c3ccccc3)c2C)c(C)c1
EC50 [4]: > 120 µM (not active)
EC50 [5]: 0.463 µM (active)
EC50 [6]: 37.9 µM (active)

c1ccc(-c2ccc(OCCCNC3CCCC3)cc2)cc1
IC50 [3]: 20.8 µM (active)
EC50 [13]: 1.03 µM (active)
EC50 [14]: > 60 µM (not active)

CCCNC(=O)c1ccc2snnc2c1
IC50 [3]: > 100 µM (inactive)

O=c1nc2n(c(O)c1C(c1c(O)nc3n(c1=O)CCS3)c1cccc3ccccc13)CCS2 (stereo not given)
IC50 [1]: > 100 µM (active)

O=C(CCn1c(=S)[nH]c2ccccc2c1=O)NCCCN1CCCC1=O
IC50 [3]: > 100 µM (inactive)

NC1=NC[C@H](c2ccccc2)N1CCc1cc(C(F)(F)F)cc(C(F)(F)F)c1
IC50 [2]: > 20 µM (inactive)

O=c1cc(N2CCN(c3ccc(F)cc3)CC2)[nH]c(=O)n1C1CCCCC1
EC50 [4]: 26.6 µM (active)
EC50 [5]: > 120 µM (not active)
EC50 [6]: 17.3 µM (inconclusive)

Cc1ccccc1NC(=O)c1cc(N)ccc1N1CCCCC1
IC50 [1]: 18.9 µM (active)

COc1cccc(NCc2cc(=O)oc3cc(-c4ccccc4)c(O)cc23)c1
EC50 [4]: 20 µM (active)
EC50 [5]: 21.8 µM (active)
EC50 [6]: 15.2 µM (active)

C=C(C)CSc1cc(C)c(C#N)c2nc3ccccc3n12
CC50 [7]: 10.1 µM (active)

Fc1ccc(-c2nc3ccc(Br)cn3c2Cc2ccccc2C(F)(F)F)cc1
IC50 [3]: > 100 µM (inactive)

O=C(N/N=C/c1ccc(Cl)cc1)c1cc2c(s1)-c1ccccc1CC2
EC50 [15]: 10.5 µM (active)
EC50 [16]: 9.47 µM (active)
IC50 [8]: 20 µM (active)

CCNC(=O)C1(C)CCCN1C(=O)c1ccc(C#N)cc1 (stereo not given)
IC50 [3]: > 100 µM (inactive)

COc1cc(/C=N\NC(=O)C2CC3C=CC2C3)ccc1O (stereo not given)
IC50 [1]: 13.3 µM (active)
IC50 [17]: 23.4 µM (active)

O=C1/C(=C\c2ccncc2)CCc2ccccc21
CC50 [7]: > 40 µM (active)

From ChEMBL document CHEMBL1201862, “PubChem BioAssay data set” (2004)
